Legend:
[1] = target: T1, α2GABAARs with H→R point mutation in the α2 subunit (Homo sapiens, UniProt P18507+P47869, H129R); test: positive allosteric modulation of H→R point-mutated α2GABAARs in HEK 293 cells; assay type: cell-based; settings: 1 μM
T1 construct: expressed in transfected cells; host or cells: HEK 293 cells, transient transfection
Excerpt: HEK293 cells were transfected using lipofectamine LTX (Dugue, G. P., et al. Neuron, 2009, 61, 126-139). To ensure expression of the γ2 subunit (required for modulation of GABAARs by BDZs) in all recorded cells, the inventors transfected cells with a plasmid expressing the γ2 subunit plus eGFP from an IRES, and only selected eGFP-positive cells for recordings. The transfection mixture contained (in μg): 1 α1, 1 β2, 3 γ2/eGFP (used as a marker of successful transfection) or 1 αx, 1 β3, 3 γ2/eGFP in case of α2, α3, or α5GABAARs. Recordings were made 18-36 hrs after transfection. Whole-cell patch-clamp recordings of GABA-evoked currents were made at room temperature (20-24° C.) and at a holding potential of −60 mV. Recording electrodes were filled with solution containing (in mM): 120 CsCl, 10 EGTA, 10 HEPES (pH 7.40), 4 MgCl2, 0.5 GTP and 2 ATP. The external solution contained (in mM): 150 NaCl, 10 KCl, 2.0 CaCl2, 1.0 MgCl2, 10 HEPES (pH 7.4), and 10 glucose. GABA was applied to the recorded cell using a manually controlled pulse (4-6 s) of a low sub-saturating GABA concentration (ECS). ECs values of GABA were determined for all subunit combinations analyzed. […] Imax was determined as the average maximal current elicited by a concentration of 1 mM GABA. […]

[2] = system: contact dermatitis-induced chronic itch; test: oxazolone contact dermatitis model of chronic itch in wild-type mice; assay type: in vivo, wild-type C57BL6/J mice
Experimental: Thus, TPA023B is, in accordance with the other findings of the inventors, suitable as an antipruritic substance.
This was independent of the treatment they received from day 7 to day 27.
The inventors sought to confirm the antipruritic efficacy of α2 and α3 GABAA receptor agonists against contact dermatitis-induced chronic itch. To this end, N-desmethyl clobazam, a benzodiazepine with improved activity at α2 versus α1 was assessed for its antipruritic effects (Jensen et al. PLoS One. 2014 Feb. 12; 9(2):e88456.).
Chronic itch was investigated in the contact dermatitis model (Kido-Nakahara, M., et al. J Clin Invest, 2014, 124, 2683-2695). Mice were treated once with 10% oxazolone in acetone/olive oil (4:1 v/v) on the shaved nape of the neck (100 μl) on day 0. After a resting period of 7 days, mice were treated with 1% oxazolone in acetone/olive oil (4:1 v/v) on the nape of the neck (100 μl) every other day for 10 days. On the day of the experiment, mice were injected with drug or vehicle i.p. under short and light isoflurane anesthesia. […]

motor coordination = test: rotarod assay (motor coordination); assay type: in vivo, mice; settings: p.o., 60 min after administration
Experimental: Locomotor activity, muscle relaxant effects and motor coordination were assessed as described previously (Ralvenius, W. T., Benke, D., Acuña, M. A., Rudolph, U. & Zeilhofer, H. U. Nature Communications, 2015, 6). […] Motor coordination was assessed with a rotarod accelerating from 4 rpm to 40 rpm within 5 min. […] Fifteen measurements were taken per mouse. To assess muscle relaxation, mice were placed with their forepaws onto a metal horizontal wire placed 20 cm above ground.

T1 sequence (P47869 29-451 H129R): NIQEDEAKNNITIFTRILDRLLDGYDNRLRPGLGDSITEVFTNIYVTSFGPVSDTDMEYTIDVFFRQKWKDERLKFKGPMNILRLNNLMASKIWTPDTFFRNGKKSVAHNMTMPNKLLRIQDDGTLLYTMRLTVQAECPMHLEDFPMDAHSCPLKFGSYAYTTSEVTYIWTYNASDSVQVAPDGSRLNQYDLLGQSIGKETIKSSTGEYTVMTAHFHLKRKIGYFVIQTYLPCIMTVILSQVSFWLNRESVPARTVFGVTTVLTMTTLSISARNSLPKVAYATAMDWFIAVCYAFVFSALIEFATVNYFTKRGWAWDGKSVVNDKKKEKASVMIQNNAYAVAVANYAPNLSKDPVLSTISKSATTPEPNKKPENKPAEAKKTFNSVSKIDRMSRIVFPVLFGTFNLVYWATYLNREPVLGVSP
T1 sequence (P28472 26-473 partner): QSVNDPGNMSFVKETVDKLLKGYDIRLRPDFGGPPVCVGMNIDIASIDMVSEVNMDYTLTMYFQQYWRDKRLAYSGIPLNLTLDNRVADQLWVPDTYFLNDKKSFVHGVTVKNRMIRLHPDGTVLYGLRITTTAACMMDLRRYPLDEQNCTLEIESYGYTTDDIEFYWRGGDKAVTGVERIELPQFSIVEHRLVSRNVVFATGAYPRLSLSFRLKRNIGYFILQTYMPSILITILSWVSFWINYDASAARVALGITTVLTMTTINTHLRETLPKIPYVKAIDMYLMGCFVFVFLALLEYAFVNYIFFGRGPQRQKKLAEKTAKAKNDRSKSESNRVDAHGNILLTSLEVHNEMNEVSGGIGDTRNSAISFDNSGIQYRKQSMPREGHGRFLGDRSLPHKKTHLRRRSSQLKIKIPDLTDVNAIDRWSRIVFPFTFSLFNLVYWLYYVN
T1 sequence (P18507 40-467 limits assumed): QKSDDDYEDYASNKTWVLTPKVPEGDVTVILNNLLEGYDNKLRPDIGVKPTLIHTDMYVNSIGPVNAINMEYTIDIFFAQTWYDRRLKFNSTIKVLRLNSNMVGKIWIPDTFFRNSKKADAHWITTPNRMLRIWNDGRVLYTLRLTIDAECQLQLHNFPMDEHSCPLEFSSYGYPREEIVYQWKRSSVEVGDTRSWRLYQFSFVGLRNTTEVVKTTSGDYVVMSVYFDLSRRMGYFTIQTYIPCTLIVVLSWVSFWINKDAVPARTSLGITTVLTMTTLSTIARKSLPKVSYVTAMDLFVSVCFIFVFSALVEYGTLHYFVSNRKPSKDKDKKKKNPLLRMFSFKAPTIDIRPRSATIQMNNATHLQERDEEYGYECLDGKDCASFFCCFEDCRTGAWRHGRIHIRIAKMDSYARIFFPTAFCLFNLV

For `CC(C)(O)c1cnn2c(-c3ccc(F)c(-c4c(F)cccc4C#N)c3)cnc2n1` [TPA023B, 6,2′-difluoro-5′-[3-(1-hydroxy-1-methylethyl)imidazo[1,2-b][1,2,4]triazin-7-yl]biphenyl-2-carbonitrile], the “positive allosteric modulation of H→R point-mutated α2GABAARs” value [1] was “abolished”, the “tolerance development to the antipruritic effects” value ([2]; 1 mg/kg i.p. for nine consecutive days, d/d vs v/d) was “exclude tolerance development” and the “scratching bouts directed at the nape of the neck vs vehicle” value ([2]; 1 mg/kg i.p. on day 18, 15 to 210 min after injection) was “significant reduction in scratching bouts”. For the same molecule, the “scratching bouts on day 28 vs vehicle, independent of pretreatment” value ([2]; 1 mg/kg i.p. on day 28 after vehicle or 1 mg/kg once daily for nine consecutive days) was “significant reduction in scratching bouts” and the “motor coordination in the rotarod assay” value (motor coordination) was “did not reduce motor coordination”.
